Here are results for 15 molecules from patent US10000452B1, “Quinolone-based compounds, formulations, and uses thereof” (University of South Florida, priority 2016, dated 2018).

Values after ≈ are worked out from the molar mass of the structure shown. Read-outs that look alike come from different tables or passages of the source. Where only a bound is given, the exact number is not on record here.

For one data set, the system named is J774 mammalian cells. As to the kind of experiment: cytotoxicity to J774 cells. Type of data set: cell-based. The conditions noted are these: Mus musculus. How it is done: This allowed a simplified method for comparing the different assays being simultaneously run. Additionally, each compound was also tested for cytotoxicity using mammalian J774 cell lines in a 96-well plate format.^12-14, 16

Data set [1] concerns malarial strain TM90-C2B (mefloquine, chloroquine, atovaquone, and pyrimethamine-resistant). As to the kind of experiment: microbe, parasite or virus in culture. Type of data set: cell-based, P. falciparum. Conditions: for EC50: Plasmodium falciparum, TM90, read-out: EC50 TM90-C2B (nM); for RI: RI = EC50 TM90-C2B/EC50 W2. The source says: Ideally, the RI of a compound should lie between 0.3 and 3.0 in order to avoid rapidly inducing resistance in the parasite. […]

The nature of data set [2]: lipophilicity log D at pH 7.4. The format is physicochemical. The conditions noted are these: octanol/water. The source says:
(§1) Furthermore, to profile the properties of the piperazinyl-4(1H)-quinolones, and to identify potential limitations, aqueous solubility and lipophilicity log D were experimentally determined via LC/MS-based assays as described by the Manetsch laboratory previously^8,10,31,32 (Tables 9-12). Encouragingly, the piperazinyl-4(1H)-quinolones were much more soluble than the previously described phenoxyethoxy-4(1H)-quinolone analogues.^19 As expected, the solubility of all compounds was affected by pH, with better solubility under more acidic conditions.
(§2) In parallel to testing the compounds for in vitro antimalarial activity, a limited structure-property relationship (SPR) study focusing on log D and aqueous solubility was conducted to assess potential physiochemical liabilities (FIG. 22). […] For these reasons, physicochemical properties were not strongly considered as selection criteria for in vivo efficacy studies.

A short description of data set [3]: aqueous solubility (LC/MS- or HPLC-based assay). The format is physicochemical.
From the text: as §1, §2

In data set [4] the test system is malarial strain W2 (pyrimethamine and chloroquine-resistant). As to the kind of experiment: in vitro antimalarial activity against multidrug resistant strain W2. Type of data set: cell-based, P. falciparum. The conditions noted are these: Plasmodium falciparum, read-out: EC50 W2 (nM).
The test system of the next data set is Pb-infected mice. Put plainly: in vivo efficacy scouting assay against blood stages. Conditions: for % Inhibition Day 6 PI: vs untreated animals; for % inhibition on day 6 PE: Example 2: two mice, single 50 mg/kg oral dose in PEG400 on day 1 PE. More on the design: species or system P. berghei; mice. How it is done:
The screening involved a single oral 50 mg/kg dose 1 day post infection (PI) and an assessment of parasitemia on days 3 PI and 6 PI (Table 6).
The screening was performed by treating two infected mice with a single 50 mg/kg oral dose of test compound suspended in PEG400 on day 1 postexposure (PE) followed by assessing parasitemia on days 3 and 6 PE.

The subject of data set [5] is P. berghei sporozoites expressing luciferase. Put plainly: in vitro liver stage activity, luciferase sporozoites infecting HEPG2 hepatoma cells. Conditions: HEPG2 cells; for EC50: Plasmodium berghei. The format is cell-based.
Where [6] appears, read: aqueous solution (buffer not named), pH 2, simulated gastric fluid, pH 2.0, read-out: Solubility pH 2.0.
Setting [7] is: aqueous solution (buffer not named), pH 6.5, aqueous buffer, pH 6.5, read-out: Solubility pH 6.5.
Where [8] appears, read: single oral 50 mg/kg dose 1 day PI.
Setting [9] is: aqueous medium, pH 2, simulated gastric fluid, pH 2.0, read-out: Solubility pH 2.0.
[10] abbreviates: aqueous medium, pH 6.5, aqueous buffer, pH 6.5, read-out: Solubility pH 6.5.

For the molecule `COC(=O)c1c[nH]c2ccc(CN3CCN(c4ccc(F)cc4)CC3)cc2c1=O` [Compound 8ah, Methyl 6-((4-(4-fluorophenyl)piperazin-1-yl)methyl)-4-oxo-1,4-dihydroquinoline-3-carboxylate], the EC50 in the data set with J774 mammalian cells (J774, read-out: EC50 J774 (μM)) is over 20 µM; in data set [1], 2900 nM; in data set [4] it was 106 nM. In data set [1], this molecule registered an RI of 27.4. This molecule also yielded a chromatographic logD in data set [2] of 2.17. In addition, the solubility in data set [3] (setting [6]) and in data set [3] (setting [7]) was at least 80 µM each time.

Regarding `O=c1c(Cl)c[nH]c2cc(CN3CCN(c4ccc(F)cc4)CC3)ccc12` [Compound 8al, 3-Chloro-7-((4-(4-fluorophenyl)piperazin-1-yl)methyl)quinolin-4(1H)-one], the EC50 is over 20 µM in the data set on J774 mammalian cells (J774, read-out: EC50 J774 (μM)); 2290 nM in data set [1]; 1060 nM in data set [4]. The chromatographic logD in data set [2] was 2.57. The solubility in data set [3] (setting [6]) was at least 80 µM; in data set [3] (setting [7]) it was 40 to 59.9 µM (≈ 14.9 to 22.3 µg/mL). Moreover, the “activities in these scout assays” value in the data set on Pb-infected mice (single oral 50 mg/kg dose 1 day PI, result in words) is “excellent activities”. Further, the “% Inhibition Day 6 PI” value with Pb-infected mice (setting [8]) is 71.9%.

For `COC(=O)c1c[nH]c2cc(N3CCN(c4ccccc4)CC3)c(OC)cc2c1=O` [Compound 8d, Methyl 6-methoxy-4-oxo-7-(4-phenylpiperazin-1-yl)-1,4-dihydroquinoline-3-carboxylate], the 50% effective concentration (EC50) was determined as 16.8 µM in the data set on J774 mammalian cells (J774, read-out: EC50 J774 (μM)) and 37.2 nM in data set [4]. For the same molecule, the chromatographic logD in data set [2] amounted to 2.64. Moreover, the solubility in data set [3] (setting [9]) was at least 80 µM; in data set [3] (setting [10]), 1 to 19.9 µM (≈ 0.393 to 7.83 µg/mL). The “% Inhibition Day 6 PI” value in the data set on Pb-infected mice (setting [8]) is on record as “little to moderate protection”.

Consider `COC(=O)c1c[nH]c2cc(CCN3CCN(c4ccccc4)CC3)ccc2c1=O` [Compound 8ac, Methyl 4-oxo-7-(2-(4-phenylpiperazin-1-yl)ethyl)-1,4-dihydroquinoline-3-carboxylate], for which the EC50 was over 20 µM in the data set with J774 mammalian cells (J774, read-out: EC50 J774 (μM)); 1500 nM in data set [1]; 25.6 nM in data set [4]. Further, in data set [1], the RI was 58.6. This molecule registered a chromatographic logD in data set [2] of 5.11. The solubility in data set [3] (setting [9]) and in data set [3] (setting [10]) was at least 80 µM throughout.

Consider `Cc1cc(=O)c2ccc(CN3CCN(c4ccc(F)cc4)CC3)cc2[nH]1` [Compound 8am, 7-((4-(4-Fluorophenyl)piperazin-1-yl)methyl)-2-methylquinolin-4(1H)-one], for which the EC50 is over 20 µM in the data set on J774 mammalian cells (J774, read-out: EC50 J774 (μM)); 1450 nM in data set [1]; 1220 nM in data set [4]. For the same molecule, the RI in data set [1] is 1.19. The molecule also gave a chromatographic logD in data set [2] of 2.44. The solubility in data set [3] (setting [6]) and in data set [3] (setting [7]) was at least 80 µM throughout.

In the case of `COC(=O)c1c[nH]c2cc(OCCCc3ccccc3)ccc2c1=O` [Compound 6j, Methyl 4-Oxo-7-(3-phenylpropoxy)-1,4-dihydroquinoline-3-carboxylate], the EC50 worked out at 5.26 nM in data set [5] and 0.711 nM in data set [4]. In addition, the “% inhibition on day 6 PE” value in the data set with Pb-infected mice is listed as 47.1%.

For `COC(=O)c1c[nH]c2cc(N3CCN(Cc4ccccc4)CC3)c(OC)cc2c1=O` [Compound 8h, Methyl 7-(4-benzylpiperazin-1-yl)-6-methoxy-4-oxo-1,4-dihydroquinoline-3-carboxylate], the EC50 in the data set on J774 mammalian cells (J774, read-out: EC50 J774 (μM)) worked out at 12.4 µM; in data set [4] it was 63.5 nM. Moreover, the chromatographic logD in data set [2] amounted to 2.03. Besides, the figures for the solubility in data set [3] (setting [9]) and in data set [3] (setting [10]) were 60 to 79.9 µM (≈ 24.4 to 32.6 µg/mL) and 40 to 59.9 µM (≈ 16.3 to 24.4 µg/mL), respectively.

Take `COC(=O)c1c[nH]c2cc(CCN3CCN(Cc4ccc(OC)cc4)CC3)ccc2c1=O` [Compound 8ae, Methyl 7-(2-(4-(4-methoxybenzyl)piperazin-1-yl)ethyl)-4-oxo-1,4-dihydroquinoline-3-carboxylate]: the EC50 in the data set with J774 mammalian cells (J774, read-out: EC50 J774 (μM)) is over 20 µM; in data set [4], 11.6 nM. Besides, in data set [1], the RI is reported as over 495. Also, the chromatographic logD in data set [2] came out at 1.68. For the same molecule, the solubility in data set [3] (setting [9]) and in data set [3] (setting [10]) was at least 80 µM each time.

On to `COC(=O)c1c[nH]c2cc(N3CCN(Cc4ccc(OC)cc4)CC3)ccc2c1=O` [Compound 8i, Methyl 7-(4-(4-methoxybenzyl)piperazin-1-yl)-4-oxo-1,4-dihydroquinoline-3-carboxylate], for which the EC50 in data set [1] stood at 1340 nM; in data set [4] it was 19.9 nM. For the same molecule, the RI in data set [1] is 67.3. In data set [2], this molecule registered a chromatographic logD of 2.08. The figures for the solubility in data set [3] (setting [9]) and in data set [3] (setting [10]) were at least 80 µM and 40 to 59.9 µM (≈ 16.3 to 24.4 µg/mL), respectively.

Regarding `COC(=O)c1c[nH]c2cc(CN3CCN(Cc4ccc5c(c4)OCO5)CC3)ccc2c1=O` [Compound 8m, Methyl 7-((4-(benzo[d][1,3]dioxol-5-ylmethyl)piperazin-1-yl)methyl)-4-oxo-1,4-dihydroquinoline-3-carboxylate], the EC50 was over 20 µM in the data set on J774 mammalian cells (J774, read-out: EC50 J774 (μM)); over 5740 nM in data set [1]; 157 nM in data set [4]. The molecule further showed an RI in data set [1] of over 36.6. In addition, the chromatographic logD in data set [2] came out at 0.87. Also, the solubility in data set [3] (setting [9]) and in data set [3] (setting [10]) was at least 80 µM throughout.

Turning to `COC(=O)c1c[nH]c2cc(N3CCN(c4ccc(OC)cc4)CC3)ccc2c1=O` [Compound 8e, Methyl 7-(4-(4-methoxyphenyl)piperazin-1-yl)-4-oxo-1,4-dihydroquinoline-3-carboxylate], the EC50 in the data set on J774 mammalian cells (J774, read-out: EC50 J774 (μM)) is over 20 µM; in data set [1] it was 154 nM; in data set [4] it was 7.76 nM. The molecule also showed an RI in data set [1] of 19.8. In addition, in data set [2], the chromatographic logD was 2.44. Besides, the solubility in data set [3] (aqueous solution, pH 2, simulated gastric fluid, pH 2.0, read-out: Solubility pH 2.0) is 40 to 59.9 µM (≈ 15.7 to 23.6 µg/mL); in data set [3] (aqueous solution, pH 6.5, aqueous buffer, pH 6.5, read-out: Solubility pH 6.5), 20 to 39.9 µM (≈ 7.87 to 15.7 µg/mL).

`CCCCc1cc2c(=O)c(CC)c[nH]c2cc1OCCOc1ccccc1` [Compound 6ae, 6-Butyl-3-ethyl-7-(2-phenoxyethoxy)quinolin-4(1H)-one]: the concentration giving a half-maximal response (EC50) was found to be 2.65 nM in data set [5]; 0.36 µM in the data set with J774 mammalian cells (J774, read-out: EC50 J774); 1.92 nM in data set [1]; 0.44 nM in data set [4]. The molecule also came in with an RI in data set [1] of 4.36. Also, the “% inhibition on day 6 PE” value in the data set on Pb-infected mice is listed as “lack of significant parasitemia reduction”.

As to `COC(=O)c1c[nH]c2cc(OCCOc3ccccc3)c(C)cc2c1=O` [Compound 6ac, Methyl 6-Methyl-4-oxo-7-(2-phenoxyethoxy)-1,4-dihydroquinoline-3-carboxylate], the EC50 in data set [5] was 152 nM; in data set [1], 499 nM; in data set [4], 2.01 nM.

Turning to `COC(=O)c1c[nH]c2cc(OCCOc3ccccc3)ccc2c1=O` [Compound 6a, Methyl 4-Oxo-7-(2-phenoxyethoxy)-1,4-dihydroquinoline-3-carboxylate], in data set [5], the “EC50 Pb (nM)” value was “subnanomolar” and the concentration for a half-maximal effect (EC50) is 0.286 nM. This molecule registered an RI in data set [1] of 26.3. Also, the EC50 in data set [4] was determined as 2.8 nM.

As for `COC(=O)c1c[nH]c2cc(CN3CCN(Cc4ccc(OC)cc4)CC3)c(OC)cc2c1=O` [Compound 8y, Methyl 6-methoxy-7-((4-(4-methoxybenzyl)piperazin-1-yl)methyl)-4-oxo-1,4-dihydroquinoline-3-carboxylate], the concentration for a half-maximal effect (EC50) in data set [5] was 52.4 nM; with J774 mammalian cells (J774, read-out: EC50 J774 (μM)), over 20 µM; in data set [1] it was 2750 nM; in data set [4] it was 9.97 nM. The “% Inhibition Day 6 PI” value in the data set on Pb-infected mice (setting [8]) is recorded as “little to moderate protection”.

The EC50 is the concentration that produces a half-maximal response. One may read the chromatographic logD as a lipophilicity value derived from retention on a column. Broadly, the solubility is the concentration that dissolves in the medium under given conditions.
